Source: patent US12606541B2, “PPARg modulators and methods of use” (Eisai R&D Management Co., Ltd., priority 2020, dated 2026)

Assays:
His6-TEV-PPARγ-(234-505) = target: T1, His6-TEV-PPARγ-(234-505) (Homo sapiens, UniProt P37231); test: TR-FRET Assay to Measure Co-R Peptide Recruitment to PPARγ; format: biochemical; conditions: Co-R peptide (SMRT-ID2) recruitment; top final concentration 20 μM; read-out: TR-FRET i-Ag; AC50
T1 construct: The His6-TEV-PPARγ-(234-505) protein for assay was expressed and purified; TEV cleavage site (N); made in house
T1 sequence (P37231 234-505): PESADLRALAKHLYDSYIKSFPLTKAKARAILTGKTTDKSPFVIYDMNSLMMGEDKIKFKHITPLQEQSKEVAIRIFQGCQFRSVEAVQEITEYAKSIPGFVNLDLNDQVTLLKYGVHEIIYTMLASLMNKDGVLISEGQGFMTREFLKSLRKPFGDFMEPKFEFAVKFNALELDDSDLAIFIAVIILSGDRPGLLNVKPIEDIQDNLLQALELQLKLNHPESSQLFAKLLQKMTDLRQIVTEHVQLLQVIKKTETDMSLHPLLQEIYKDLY
Outline: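 Corepressor recruitment is measured by adding terbium-labeled anti-His antibody and FITC SMRT-ID2 peptide, at 5 and 200 nM final, after a 20-minute room-temperature protein–compound incubation. After one further hour, signal is converted to percent response between DMSO and 500 nM T0070907 wells.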

UM-UC-9 engineered cells = test: Cell proliferation / short-term viability assay, CellTiter-Glo 144 h; format: cell-based, human; conditions: Homo sapiens, UM-UC-9, 144 h, read-out: CTGlo 144 h UMUC9.5, G150
Outline: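 Viability read by CellTiter-Glo 2.0 luminescence at day 7 versus DMSO-vehicle wells and a T0 plate measured on day 0. Cells: UM-UC-9 engineered assay-ready stocks, 500 cells/well in high-glucose DMEM with 10% FBS, 37° C, 5% CO2.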

Row | SMILES | AC50 (His6-TEV-PPARγ-(234-505)) | IC50 (UM-UC-9 engineered cells)
1 | COc1cc(-c2cc(C(=O)N3CCC(C(=O)N[C@@H](C)c4cccc(F)c4)CC3)n[nH]2)c(Cl)cn1 [Example 103, (8)-1-(5-(5-chloro-2-methoxypyridin-4-yl)-1H-pyrazole-3-carbonyl)-N-(1-(3-fluorophenyl)ethyl)piperidine-4-carboxamide] | 257 nM | 320 nM
2 | COc1cc(-c2cc(C(=O)N3CCC(C(=O)NCc4cccc(Cl)c4)CC3)n[nH]2)c(Cl)cn1 [Example 112, 1-[5-(5-chloro-2-methoxypyridin-4-yl)-1H-pyrazole-3-carbonyl]-N-[(3-chlorophenyl)methyl]piperidine-4-carboxamide] | 30.3 nM | 111 nM
3 | COc1cc(-c2cc(C(=O)N3CCC(C(=O)NC4CCN(c5ccccc5)C4)CC3)n[nH]2)c(Cl)cn1 (stereo not drawn) [Example 117, 1-[5-(5-chloro-2-methoxypyridin-4-yl)-1H-pyrazole-3-carbonyl]-N-(1-phenylpyrrolidin-3-yl)piperidine-4-carboxamide] | 56.2 nM | 293 nM
4 | COc1cc(-c2cc(C(=O)N3CCC(C(=O)NCc4cn5ccccc5n4)CC3)n[nH]2)c(Cl)cn1 [Example 119, 1-(5-(5-chloro-2-methoxypyridin-4-yl)-1H-pyrazole-3-carbonyl)-N-(imidazo[1,2-a]pyridin-2-ylmethyl)piperidine-4-carboxamide] | 337 nM | > 5000 nM
5 | COc1cc(-c2cc(C(=O)N3CCC(C(=O)NCc4ccc(Cl)cn4)CC3)n[nH]2)c(Cl)cn1 [Example 120, 1-(5-(5-chloro-2-methoxypyridin-4-yl)-1H-pyrazole-3-carbonyl)-N-((5-chloropyridin-2-yl)methyl)piperidine-4-carboxamide] | 227 nM | 766 nM
6 | COc1cc(-c2cc(C(=O)N3CCC(C(=O)NCc4ccc5[nH]ccc5c4)CC3)n[nH]2)c(Cl)cn1 [Example 122, N-((1H-indol-5-yl)methyl)-1-(5-(5-chloro-2-methoxypyridin-4-yl)-1H-pyrazole-3-carbonyl)piperidine-4-carboxamide] | 11 nM | 66.1 nM
7 | COc1cc(-c2cc(C(=O)N3CCC(C(=O)NCc4c(F)ccc(F)c4F)CC3)n[nH]2)c(Cl)cn1 [Example 123, 1-(5-(5-chloro-2-methoxypyridin-4-yl)-1H-pyrazole-3-carbonyl)-N-(2,3,6-trifluorobenzyl)piperidine-4-carboxamide] | 12.8 nM | 100 nM
8 | COc1cc(-c2cc(C(=O)N3CCC(C(=O)NCc4cn(C)nc4C)CC3)n[nH]2)c(Cl)cn1 [Example 124, 1-(5-(5-chloro-2-methoxypyridin-4-yl)-1H-pyrazole-3-carbonyl)-N-((1,3-dimethyl-1H-pyrazol-4-yl)methyl)piperidine-4-carboxamide] | 982 nM | 5020 nM
9 | COc1cc(-c2cc(C(=O)N3CCC(C(=O)NCc4cc(F)ccc4Cl)CC3)n[nH]2)c(Cl)cn1 [Example 125, 1-(5-(5-chloro-2-methoxypyridin-4-yl)-1H-pyrazole-3-carbonyl)-N-(2-chloro-5-fluorobenzyl)piperidine-4-carboxamide] | 24.6 nM | 301 nM
10 | COc1cc(-c2cc(C(=O)N3CCC(C(=O)Nc4cnn(CC(F)(F)F)c4)CC3)n[nH]2)c(Cl)cn1 [Example 126, 1-(5-(5-chloro-2-methoxypyridin-4-yl)-1H-pyrazole-3-carbonyl)-N-(1-(2,2,2-trifluoroethyl)-1H-pyrazol-4-yl)piperidine-4-carboxamide] | 707 nM | 2460 nM
11 | COc1cc(-c2cc(C(=O)N3CCC(C(=O)NCc4ccc(F)cn4)CC3)n[nH]2)c(Cl)cn1 [Example 127, 1-(5-(5-chloro-2-methoxypyridin-4-yl)-1H-pyrazole-3-carbonyl)-N-((5-fluoropyridin-2-yl)methyl)piperidine-4-carboxamide] | 644 nM | 2930 nM

Now from value to molecule, other results behind:

Row | AC50 (His6-TEV-PPARγ-(234-505)) | SMILES | IC50 (UM-UC-9 engineered cells)
12 | 864 nM | COc1cc(-c2cc(C(=O)N3CCC(C(=O)NC4(C#N)CCC4)CC3)n[nH]2)c(Cl)cn1 [Example 128, 1-(5-(5-chloro-2-methoxypyridin-4-yl)-1H-pyrazole-3-carbonyl)-N-(1-cyanocyclobutyl)piperidine-4-carboxamide] | 2560 nM
13 | 273 nM | COc1cc(-c2cc(C(=O)N3CCC(C(=O)NCc4cccc(C(F)(F)F)n4)CC3)n[nH]2)c(Cl)cn1 [Example 129, 1-(5-(5-chloro-2-methoxypyridin-4-yl)-1H-pyrazole-3-carbonyl)-N-((6 (trifluoromethyl)pyridin-2-yl)methyl)piperidine-4-carboxamide] | 1020 nM
14 | 75.9 nM | COc1cc(-c2cc(C(=O)N3CCC(C(=O)NCc4ncccc4C(F)(F)F)CC3)n[nH]2)c(Cl)cn1 [Example 130, 1-(5-(5-chloro-2-methoxypyridin-4-yl)-1H-pyrazole-3-carbonyl)-N-((3-(trifluoromethyl)pyridin-2-yl)methyl)piperidine-4-carboxamide] | 685 nM
15 | 494 nM | COc1cc(-c2cc(C(=O)N3CCC(C(=O)NCc4cnccc4C)CC3)n[nH]2)c(Cl)cn1 [Example 131, 1-(5-(5-chloro-2-methoxypyridin-4-yl)-1H-pyrazole-3-carbonyl)-N-((4-methylpyridin-3-yl)methyl)piperidine-4-carboxamide] | 2610 nM
16 | 292 nM | COc1cc(-c2cc(C(=O)N3CCC(C(=O)N[C@@H]4C[C@H]4c4ccccc4)CC3)n[nH]2)c(Cl)cn1 [Example 133, 1-(5-(5-chloro-2-methoxypyridin-4-yl)-1H-pyrazole-3-carbonyl)-N-((1R,2S)-2-phenylcyclopropyl)piperidine-4-carboxamide] | 1740 nM
17 | 238 nM | COc1cc(-c2cc(C(=O)N3CCC(C(=O)NCC4(O)CCCCC4)CC3)n[nH]2)c(Cl)cn1 [Example 134, 1-(5-(5-chloro-2-methoxypyridin-4-yl)-1H-pyrazole-3-carbonyl)-N-((1-hydroxycyclohexyl)methyl)piperidine-4-carboxamide] | 1090 nM
18 | 887 nM | COc1cc(-c2cc(C(=O)N3CCC(C(=O)NCc4cnc(C)o4)CC3)n[nH]2)c(Cl)cn1 [Example 136, 1-(5-(5-chloro-2-methoxypyridin-4-yl)-1H-pyrazole-3-carbonyl)-N-((2-methyloxazol-5-yl)methyl)piperidine-4-carboxamide] | 6100 nM
19 | 130 nM | COc1cc(-c2cc(C(=O)N3CCC(C(=O)NCc4cccc5ccnn45)CC3)n[nH]2)c(Cl)cn1 [Example 137, 1-(5-(5-chloro-2-methoxypyridin-4-yl)-1H-pyrazole-3-carbonyl)-N-(pyrazolo[1,5-a]pyridin-7-ylmethyl)piperidine-4-carboxamide] | 678 nM
20 | 501 nM | COc1cc(-c2cc(C(=O)N3CCC(C(=O)NCc4ncc(Cl)cn4)CC3)n[nH]2)c(Cl)cn1 [Example 138, 1-(5-(5-chloro-2-methoxypyridin-4-yl)-1H-pyrazole-3-carbonyl)-N-((5-chloropyrimidin-2-yl)methyl)piperidine-4-carboxamide] | 1470 nM
21 | 336 nM | COc1cc(-c2cc(C(=O)N3CCC(C(=O)NCc4ccc(C(F)(F)F)cn4)CC3)n[nH]2)c(Cl)cn1 [Example 139, 1-(5-(5-chloro-2-methoxypyridin-4-yl)-1H-pyrazole-3-carbonyl)-N-((5-(trifluoromethyl)pyridin-2-yl)methyl)piperidine-4-carboxamide] | 1790 nM
